Earlier results as cited in US12551426B2, “Method for treating hair, comprising the application of a first agent (a) having a silane and a chromophoric compound, and a second agent (b) having a film-forming polymer” (Henkel AG & Co. KGaA, priority 2018, dated 2026).

Details: 25° C.

solubility in water (in words) | Compound | solubility in water
– | O=S(=O)([O-])c1ccc(N=Nc2c(O)ccc3ccccc23)cc1.[Na+] [Acid Orange 7, sodium salt of 4-[(2-hydroxy-1-naphthyl)azo]benzene sulphonate] | more than 7 g/L
– | Nc1cc(S(=O)(=O)[O-])cc2cc(S(=O)(=O)[O-])c(N=Nc3ccccc3)c(O)c12.[Na+].[Na+] [Acid Red 33, diantrium salt of 5-amino-4-hydroxy-3-(phenylazo)-naphthalene-2,7-disulphonate] | 2.5 mg/mL
– | O=C([O-])c1c(Cl)c(Cl)c(Cl)c(Cl)c1-c1c2c(Br)cc(=O)c(Br)c-2oc2c(Br)c(O)cc(Br)c12.O=C([O-])c1c(Cl)c(Cl)c(Cl)c(Cl)c1-c1c2c(Br)cc(=O)c(Br)c-2oc2c(Br)c(O)cc(Br)c12.[Na+].[Na+] [Acid Red 92, disodium salt of 3,4,5,6-tetrachloro-2-(1,4,5,8-tetrabromo-6-hydroxy-3-oxoxanthen-9-yl)benzoic acid] | greater than 10 g/L
highly soluble in water | O=C([O-])C1=NN(c2ccc(S(=O)(=O)[O-])cc2)C(=O)C1N=Nc1ccc(S(=O)(=O)[O-])cc1.[Na+].[Na+].[Na+] (centres unmarked) [Acid Yellow 23, trisodium salt of 4,5-dihydro-5-oxo-1-(4-sulfophenyl)-4-((4-sulfophenyl)azo)-1H-pyrazole-3-carboxylic acid] | –
– | Acid Yellow 3 | 20 mg/mL
